Test results: patent US20240376097A1, “BCL-2 Inhibitor” (BeiGene Ltd., priority 2020, published 2024)

How the values were obtained:
[1] = biological target: recombinant human Bcl-2 D103Y protein (Homo sapiens (Human), UniProt P10415, D103Y); experiment: Bcl-2-D103Y Biochemical Assay (TR-FRET); type: binding
Outline: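 Compounds titrated against the Bcl-2 D103Y–ligand interaction; inhibition derived from the TR-FRET emission ratio 490 nm/520 nm after 337 nm excitation. Four-parameter logistic fitting gave IC50.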

[2] = biological target: Recombinant human Bcl-2 protein (Homo sapiens (Human), UniProt P10415); experiment: Bcl-2 TR-FRET Assay; type: binding; details: wild type Bcl-2; unit inferred; read-out: Bcl-2 WT
Outline: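 Displacement of FITC-labelled Bak peptide (0.5 nM) from 0.05 nM human Bcl-2, detected by TR-FRET with Tb-cryptate anti-6His antibody after 1 h at room temperature. Compounds, 10-point series, preincubated 0.5 h with protein in 20 mM potassium phosphate pH 7.5, 50 mM NaCl. IC50s fitted by four-parameter logistic.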

[3] = Metabolic Stability Study, liver microsome incubation (human); type: in vitro ADME; details: human liver microsomes 0.5 mg/mL, 1 μM compound, NADPH; for half-life at 1 μM: NA^# = very stable, beyond the detection limits, read-out: T1/2 (min) Human; for microsomal CLint at 1 μM: read-out: CLint (μL × min^−1 × mg^−1) Human
Protocol: (§1) Biological Example: Metabolic Stability Study
(§2) The metabolic stability of some compounds was evaluated by using the liver microsome incubation system in vitro. Briefly, the test compounds at 1 μM, were incubated with 0.5 mg/mL liver microsomes from different species (human, dog, rat and mouse) with an NADPH regenerating system at 37° C. Samples were quenched at three time points (0, 30, 60 min) with organic solvent containing internal standards, and the supernatant was analyzed for parent loss via LC-MS/MS. Midazolam was used as the positive control to validate the incubation system.
(§3) where Cprotein is the microsomal protein concentration in the incubation system.
(§4) The value of CLint and T1/2 of Example F132b in WO2019210818 and representative compounds of the disclosure were determined, and the results are shown in Table 5.

[4] = Metabolic Stability Study, liver microsome incubation (mouse); type: in vitro ADME; details: mouse liver microsomes 0.5 mg/mL, 1 μM compound, NADPH; for half-life at 1 μM: NA^# = very stable, beyond the detection limits, read-out: T1/2 (min) mouse; for microsomal CLint at 1 μM: read-out: CLint (μL × min^−1 × mg^−1) mouse
Protocol: as §1, §2, §3, §4

[5] = tested on: RS4;11 (BCL-2 dependent acute lymphoblastic leukemia cell line); experiment: RS4;11 Cell Proliferation Assay; type: cell-based; details: Homo sapiens, RS4;11 cells, read-out: Cellular proliferation assay (IC50, nM) RS4
Outline: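 Viability measured via CellTiter-Glo luminescence after a 48 h, 37 °C exposure to compounds (10 points, highest 1 μM). Seeding was 50,000 RS4;11 cells per well in 10% FBS RPMI-1640; IC50 given as mean.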

[6] = tested on: BCL-2 G101V knock-in cell line H96 (derive from RS4;11); experiment: Bcl 2-G101V Knock-In RS4;11 Cell Proliferation Assay; type: cell-based; details: Homo sapiens, RS4-11, 48 h, RS4;11 Bcl-2 G101V knock-in clone H96, 48 hrs, CellTiter-GLO, read-out: Cellular proliferation assay (IC50, nM) RS4
Outline: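 CellTiter-Glo luminescence after 48 h, 37 °C compound treatment (10 concentrations, maximum 1 μM or 10 μM) gave mean IC50 values. Cells were 50,000 per well of H96, a BCL2-G101V knock-in single clone derived from RS4;11 by Cas9 editing.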

recombinant human Bcl-2 D103Y protein, sequence (P10415 whole entry D103Y): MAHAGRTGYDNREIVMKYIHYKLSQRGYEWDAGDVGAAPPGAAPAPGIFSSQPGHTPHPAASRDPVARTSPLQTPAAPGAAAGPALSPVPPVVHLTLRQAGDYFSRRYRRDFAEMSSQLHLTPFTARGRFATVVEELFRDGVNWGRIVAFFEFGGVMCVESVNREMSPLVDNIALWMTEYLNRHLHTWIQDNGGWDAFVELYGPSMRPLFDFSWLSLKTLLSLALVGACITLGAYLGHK
Recombinant human Bcl-2 protein, sequence (P10415 whole entry): as the sequence (P10415 whole entry D103Y) above, with Y103D counted along it

SMILES	IC50 ([1]; TR-FRET, FITC labeled Bak peptide) [nM]	Ratio of Bcl-2 D103Y/Bcl-2 WT ([1]; ratio of IC50)	IC50 [2] [nM]	half-life at 1 μM [3] [min]	microsomal CLint at 1 μM [3] [µL/min/mg]	half-life at 1 μM [4] [min]	microsomal CLint at 1 μM [4] [µL/min/mg]	IC50 [5] [nM]	IC50 [6] [nM]
COc1ccc(CN2CCN(C3CC4(CCN(c5ccc(C(=O)NS(=O)(=O)c6ccc(NC[C@H]7COCCO7)c([N+](=O)[O-])c6)c(Oc6cnc7[nH]ccc7c6)c5)CC4)C3)[C@H](c3ccccc3C(C)C)C2)cc1 (single isomer, unassigned) [Example 33, N-((4-((((S)-1,4-dioxan-2-yl)methyl)amino)-3-nitrophenyl)sulfonyl)-2-((1H-pyrrolo[2,3-b]pyridin-5-yl)oxy)-4-(2-((R or S)-2-(2-isopropylphenyl)-4-(4-methoxybenzyl)piperazin-1-yl)-7-azaspiro[3.5]nonan-7-yl)benzamide]	0.094	2.5	0.038	1820	0.8	233	5.9		
COc1ccc(CN2CCN(C3CC4(CCN(c5ccc(C(=O)NS(=O)(=O)c6ccc(NC[C@H]7CC[C@](C)(O)CC7)c([N+](=O)[O-])c6)c(Oc6cnc7[nH]ccc7c6)c5)CC4)C3)C(c3ccccc3C(C)C)C2)cc1 (stereo partly drawn) [Example 19, 2-((1H-pyrrolo[2,3-b]pyridin-5-yl)oxy)-N-((4-((((1r,4r)-4-hydroxy-4-methylcyclohexyl)methyl)amino)-3-nitrophenyl)sulfonyl)-4-(2-(2-(2-isopropylphenyl)-4-(4-methoxybenzyl)piperazin-1-yl)-7-azaspiro[3.5]nonan-7-yl)benzamide]				1230	1.1	292	4.7	0.33	1.9
COc1cc(CN2CCN(C3CC4(CCN(c5ccc(C(=O)NS(=O)(=O)c6ccc(NC[C@H]7CC[C@](C)(O)CC7)c([N+](=O)[O-])c6)c(Oc6cnc7[nH]ccc7c6)c5)CC4)C3)C(c3ccccc3C(C)C)C2)cc(OC)c1 (stereo partly drawn) [Example 49]				93.4	14.8	205	6.7	0.49	2.4
CC(C)c1ccccc1C1CC(Cc2ccccc2)CCN1C1CC2(CCN(c3ccc(C(=O)NS(=O)(=O)c4ccc(NC[C@H]5CC[C@](C)(O)CC5)c([N+](=O)[O-])c4)c(Oc4cnc5[nH]ccc5c4)c3)CC2)C1 (stereo partly drawn) [Example 67, 2-((1H-pyrrolo[2,3-b]pyridin-5-yl)oxy)-4-(2-(4-benzyl-2-(2-isopropylphenyl)piperidin-1-yl)-7-azaspiro[3.5]nonan-7-yl)-N-((4-((((1r,4r)-4-hydroxy-4-methylcyclohexyl)methyl)amino)-3-nitrophenyl)sulfonyl)benzamide]				309	4.5	272	5.1		
CC(C)c1ccccc1[C@@H]1CN(Cc2ccc(OC3CC3)c(OC3CC3)c2)CCN1C1CC2(C1)CN(c1ccc(C(=O)NS(=O)(=O)c3ccc(NC[C@H]4CC[C@](C)(O)CC4)c([N+](=O)[O-])c3)c(Oc3cnc4[nH]cc(F)c4c3)c1)C2 [Example 363, 4-(6-((R)-4-(3,4-dicyclopropoxybenzyl)-2-(2-isopropylphenyl)piperazin-1-yl)-2-azaspiro[3.3]heptan-2-yl)-2-((3-fluoro-1H-pyrrolo[2,3-b]pyridin-5-yl)oxy)-N-((4-((((1r,4r)-4-hydroxy-4-methylcyclohexyl)methyl)amino)-3-nitrophenyl)sulfonyl) benzamide]					< 1		< 1	0.11	0.14
